According to patent US20240374581A1, “SALT TYPES OF TRICYCLIC TETRAHYDRO ISOQUINOLINE DERIVATIVE” (JIANGSU HENGRUI PHARMACEUTICALS CO., LTD., priority 2021, published 2024):

What was measured:
CYP3A4 [1] = target: T1, CYP3A4 (Homo sapiens (Human), UniProt P08684); experiment: Inhibition of site of metabolism of midazolam in human liver microsome CYP3A4; format: in vitro ADME; conditions: 30 min
Experimental: (§1) • 1. Phosphate buffer (20×PBS, purchased from Sangon); • 2. NADPH (ACROS, A2646-71-1); • 3. Human liver microsome (Corning Gentest, Cat No. 452161, Lot No. 9050002, Donor, 36); • 4. ABI QTrap 4000 LC-MS System (AB Sciex); • 5. ZORBAX Extend-C18, 3×50 mm, 3.5 m (Agilent, USA); • 6. CYP probe substrate (midazolam, TRC, M343000/3 μM) and positive control inhibitor (ketoconazole, SIGMA, Cat No. K1003-100MG).
A 100 mM PBS buffer was prepared. A 0.25 mg/mL microsome solution, a 7.5 mM MgCl2 and a 5 mM NADPH solution were prepared using the buffer. A 30 mM stock solution was diluted with DMSO to obtain 30 mM, 10 mM, 3 mM, 1 mM, 0.3 mM, 0.03 mM, 0.003 mM and 0 mM serial solutions I, which were further diluted 200-fold with phosphate buffer (PBS) to obtain serial test solutions II (150, 50, 15, 5, 1.5, 0.15, 0.015 and 0 μM). A midazolam working solution was diluted with PBS to 15 μM. 40 μL of a 0.25 mg/mL microsome solution prepared in 7.5 mM MgCl2 and 20 μL of each of the […] midazolam working solution and the compound working solutions (150, 50, 15, 5, 1.5, 0.15, 0.015 and 0 μM) were measured out and well mixed. Ketoconazole at the same concentration was used in place of the compound as a positive control group. […]
The IC50 value of the drug for the site of metabolism of midazolam in CYP3A4 was calculated by Graphpad Prism and is shown in Table 5.

CYP3A4 [2] = target: T1, CYP3A4; experiment: Time-dependent inhibition of site of metabolism of midazolam in human liver microsome CYP3A4; format: in vitro ADME
Experimental: as §1, with “(verapamil, Adamas Reagent Co., Ltd,” for “(ketoconazole, SIGMA,”, “25904A).” for “K1003-100MG).”
A 100 mM PBS buffer was prepared. A 0.25 mg/mL microsome solution, a 7.5 mM MgCl2 and a 5 mM NADPH solution were prepared using the buffer. A 30 mM stock solution was diluted with DMSO to obtain 30 mM, 10 mM, 3 mM, 1 mM, 0.3 mM, 0.1 mM, 0.03 mM and 0 mM serial solutions I, which were further diluted 200-fold with phosphate buffer (PBS) to obtain serial test solutions II (150, 50, 15, 5, 1.5, 0.5, 0.15 and 0 μM). A midazolam working solution was diluted with PBS to 15 μM.
The serial test solutions prepared above were well mixed by shaking and aliquoted in 20 μL portions into corresponding reaction plates (+NADPH, T0 and -NADPH groups were set). Three parallel tests were set. 40 μL of the liver microsome working solution was added to each 96-well plate. 20 μL of a corresponding substrate solution was added to the TO plate. 20 μL of NADPH was added to the TO plate and +NADPH group. A timer was started, and the plates were incubated in a water bath at 37° C. After 30 min of incubation, the TO plate was taken out, and the reaction was terminated with 250 μL of an internal standard-containing ACN solution. The +NADPH group was supplemented with 20 μL of the corresponding substrate solution, and the −NADPH group was supplemented with 20 μL of the corresponding substrate solution and […]. A timer was started, and the plates were incubated in a water bath at 37° C. After 30 min of incubation, the plates were taken out, and the reactions were terminated with 250 μL of an internal standard-containing ACN solution. […]
The IC50 value of the drug for the site of metabolism of midazolam in CYP3A4 was calculated by Graphpad Prism and is shown in Table 7.

MCF-7 cells = experiment: Inhibition of proliferation of MCF-7 cells (ATP method); format: cell-based; conditions: Homo sapiens, MCF7; 72 h, Cell Titer-Glo; read-out: IC50, inhibitory effect on proliferation of MCF-7 cells
Experimental: This experiment was intended to test the inhibitory effect of the compound disclosed herein on the proliferation of MCF-7 cells by using the ATP method, and to evaluate the in vitro activity of the compound according to the IC50 value.
MCF-7 cells (TCHu74, National Collection of Authenticated Cell Cultures) were seeded into a 96-well plate with an MEM (hyclone, SH30024.01B) medium containing 10% FBS (Gibco, 10099-141), 1% sodium pyruvate (sigma, S8636) and 1% non-essential amino acid (sigma, M7145) at a density of 4,000 cells/well and cultured at 37° C. with 5% CO2. 20 mM stock solution of the compound was prepared, serially diluted with 100% DMSO to a final concentration of 1000×, and then diluted 20-fold with a medium containing 2% FBS. After the cells were cultured for 24 h, the medium was removed. 90 μL of the medium containing 2% FBS and 10 μL of a drug were added to each well, and 10 μL of DMSO was added to the control group. The mixtures were well mixed by gentle shaking. The blank group contained only 100 μL of the medium containing 2% FBS. The cells were cultured in an incubator at 37° C. with 5% CO2 for 72 h, and then 50 μL of mixed Cell Titer-Glo (Promega, G7571) was added to each well. The mixtures were well mixed by shaking and let stand at room temperature for 10 min, and the chemiluminescence signal value was determined. […]

T1 sequence (P08684 whole entry): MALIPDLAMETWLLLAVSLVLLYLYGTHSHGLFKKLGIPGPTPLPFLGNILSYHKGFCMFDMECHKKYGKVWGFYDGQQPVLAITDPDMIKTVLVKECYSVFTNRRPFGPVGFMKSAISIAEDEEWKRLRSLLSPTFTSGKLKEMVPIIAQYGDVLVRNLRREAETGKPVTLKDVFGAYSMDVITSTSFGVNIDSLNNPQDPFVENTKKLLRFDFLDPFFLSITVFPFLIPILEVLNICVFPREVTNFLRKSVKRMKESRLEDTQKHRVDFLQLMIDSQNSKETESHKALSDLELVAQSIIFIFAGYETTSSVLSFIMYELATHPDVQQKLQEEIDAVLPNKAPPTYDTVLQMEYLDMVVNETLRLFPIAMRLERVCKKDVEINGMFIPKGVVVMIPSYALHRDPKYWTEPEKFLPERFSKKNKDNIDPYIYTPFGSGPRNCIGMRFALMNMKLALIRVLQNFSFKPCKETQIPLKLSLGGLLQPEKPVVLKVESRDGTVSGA

[2H]C1([2H])Oc2cc3c(cc2O1)[C@@H](c1ccc(NC2CN(CCCF)C2)cn1)N(CC(F)(F)CO)[C@H](C)C3 [Compound 1, 2,2-Difluoro-3-((5S,7R)-5-(5-((1-(3-fluoropropyl)azetidin-3-yl)amino)pyridin-2-yl)-7-methyl-7,8-dihydro-[1,3]dioxolo[4,5-g]isoquinolin-6(5H)-yl-2,2-d2)propan-1-ol]
IC50 (CYP3A4 [1]): 15.4 µM | IC50 shift at 30 min (CYP3A4 [2]; human, microsomes): 0.7 | IC50 (CYP3A4 [2]; pre-incubation with NADPH 30 min): 13.1 µM | IC50 (CYP3A4 [2]; pre-incubation without NADPH): 19.6 µM | IC50 (MCF-7 cells): 0.00029 µM
